In US20240425479A1, “HALO-SUBSTITUTED AMINO AZA-HETEROARYL COMPOUNDS AS INHIBITORS OF THE HAEMATOPOIETIC PROGENITOR KINASE 1 (HPK1)” (priority 2021, published 2024) one finds IC50 data, which are given here for eleven compounds.

In the test the target is T1, Recombinant (1-346) HPK1 (h) (Homo sapiens, UniProt Q92918).
T1 construct: Recombinant (1-346) HPK1 (h) is incubated with 8 mM MOPS pH 7.0
T1 sequence (Q92918 1-346): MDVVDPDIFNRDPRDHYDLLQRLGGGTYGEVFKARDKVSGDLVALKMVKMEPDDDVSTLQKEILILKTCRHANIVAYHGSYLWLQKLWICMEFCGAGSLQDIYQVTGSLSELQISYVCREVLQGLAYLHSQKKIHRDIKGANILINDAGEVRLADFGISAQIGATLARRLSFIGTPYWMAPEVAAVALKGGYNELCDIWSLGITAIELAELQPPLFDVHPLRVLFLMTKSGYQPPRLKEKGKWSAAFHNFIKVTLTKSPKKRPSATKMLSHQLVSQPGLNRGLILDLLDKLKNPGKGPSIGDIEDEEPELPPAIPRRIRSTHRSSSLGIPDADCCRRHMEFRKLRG
Description: HPK1 human STE kinase enzymatic radiometric assay. Format: biochemical. To be noted: read-out: HPK1 IC50 nM Range. The gist of the method: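 Recombinant HPK1 (1-346) incubated 40 min at RT with 0.33 mg/mL myelin basic protein and [gamma-33P]-ATP in 8 mM MOPS pH 7.0, 0.2 mM EDTA, 10 mM Mg acetate; reaction started with Mg/ATP. Stopped with 0.5% phosphoric acid, spotted on P30 filtermat, washed, scintillation counted. Compounds tested as 9-point 3-fold dilutions.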

The structures appear in SMILES notation.

For `Nc1nc(F)c(-c2ccc(OC3CCOCC3)c(CN3CCC3)c2)nc1-c1ccc2c(c1)CCNC2=O` [Example I-208, 6-(3-amino-6-(3-(azetidin-1-ylmethyl)-4-((tetrahydro-2H-pyran-4-yl)oxy)phenyl)-5-fluoropyrazin-2-yl)-3,4-dihydroisoquinolin-1(2H)-one], the IC50 (in general, the concentration that inhibits the measured activity by half) lay within 11 to 100 nM. As to `Cc1nc2cc(-c3nc(-c4ccc(N5CCN(C6CCC6)CC5)cc4)c(F)nc3N)ccc2c(=O)[nH]1` [Example I-76, 7-(3-amino-6-(4-(4-cyclobutylpiperazin-1-yl)phenyl)-5-fluoropyrazin-2-yl)-2-methylquinazolin-4(3H)-one], the IC50 lay in the range of 11 to 100 nM. The figure for `C[C@@H]1CN(C)CCN1c1ccc(-c2nc(-c3ccc4c(c3)CCNC4=O)c(N)nc2F)cc1` [Example I-52, (R)-6-(3-amino-6-(4-(2,4-dimethylpiperazin-1-yl)phenyl)-5-fluoropyrazin-2-yl)-3,4-dihydroisoquinolin-1(2H)-one] is 0.1 to 10 nM.

As to `Nc1nc(F)c(-c2ccc(N3CCN(CCCC(F)F)CC3)cc2)nc1-c1cc2c(cc1F)C(=O)NCC2` [Example I-69, 6-(3-amino-6-(4-(4-(4,4-difluorobutyl)piperazin-1-yl)phenyl)-5-fluoropyrazin-2-yl)-7-fluoro-3,4-dihydroisoquinolin-1(2H)-one], the IC50 was 0.1 to 10 nM. Regarding `Cc1nc2cc(-c3nc(-c4ccc(N5CCN(CC6CC6)CC5)cc4)c(F)nc3N)ccc2c(=O)[nH]1` [Example I-79, 7-(3-amino-6-(4-(4-(cyclopropylmethyl)piperazin-1-yl)phenyl)-5-fluoropyrazin-2-yl)-2-methylquinazolin-4(3H)-one], the IC50 lay within 101 to 1000 nM. On to `CO[C@@H]1CCN(Cc2cc(-c3nc(-c4cc5c(cc4F)C(=O)NCC5)c(N)nc3F)ccc2N2CCOCC2)C1` [Example I-152, (R)-6-(3-amino-5-fluoro-6-(3-((3-methoxypyrrolidin-1-yl)methyl)-4-morpholinophenyl)pyrazin-2-yl)-7-fluoro-3,4-dihydroisoquinolin-1(2H)-one], for which the IC50 is 0.1 to 10 nM. Turning to `Cc1cc2cc(-c3nc(-c4ccc(N5CCOCC5)c(CN(C)C)c4)c(F)nc3N)c(F)cc2c(=O)[nH]1` [Example I-183, 6-(3-amino-6-(3-((dimethylamino)methyl)-4-morpholinophenyl)-5-fluoropyrazin-2-yl)-7-fluoro-3-methylisoquinolin-1(2H)-one], the IC50 lay in the range of 0.1 to 10 nM. The figure for `CN(C)[C@@H]1CCOc2ccc(-c3nc(-c4ccc5c(c4)CCNC5=O)c(N)nc3F)cc21` [Example I-287, (R)-6-(3-amino-6-(4-(dimethylamino)chroman-6-yl)-5-fluoropyrazin-2-yl)-3,4-dihydroisoquinolin-1(2H)-one] is 0.1 to 10 nM. The result for `Cc1[nH]c(=O)c2c(F)cc(-c3nc(-c4ccc(C5CCOCC5)c(CN(C)C)c4)c(F)nc3N)cc2c1Cl` [Example I-104, 6-(3-amino-6-(3-((dimethylamino)methyl)-4-(tetrahydro-2H-pyran-4-yl)phenyl)-5-fluoropyrazin-2-yl)-4-chloro-8-fluoro-3-methylisoquinolin-1(2H)-one] reads 0.1 to 10 nM; that for `CCN1CCN(c2ccc(-c3nc(-c4cc5c(cc4F)C(=O)NCC5)c(N)nc3F)cc2)CC1` [Example I-56, 6-(3-amino-6-(4-(4-ethylpiperazin-1-yl)phenyl)-5-fluoropyrazin-2-yl)-7-fluoro-3,4-dihydroisoquinolin-1(2H)-one], 0.1 to 10 nM. On to `CN(C)Cc1cc(-c2nc(-c3ccc4c(=O)[nH]cc(F)c4c3)c(N)nc2F)c(F)c(F)c1N1CCOCC1` [Example I-263, 6-(3-amino-6-(5-((dimethylamino)methyl)-2,3-difluoro-4-morpholinophenyl)-5-fluoropyrazin-2-yl)-4-fluoroisoquinolin-1(2H)-one], for which the IC50 was 11 to 100 nM.
